# From patent US7521538B2, “Crystal structure of the ternary complex of 14-3-3/Fusicoccin/PMA and methods for designing new herbicides” (Max-Planck-Gesellschaft zur Foerderung der Wissenschaften …, priority 2003, dated 2009)
# Substitutions are numbered along the chain they refer to. Like-named read-outs stand apart in the source and are kept apart here. Non-standard residues stand in square brackets, D forms with d. Residues, ends and D or L forms follow the SMILES beside them. pT = C[C@@H](OP(=O)(O)O)[C@H](N)C(=O)O
# How the values were obtained:
# [1] = molecular target: T1, 14-3-3z F126E / PMA-GST fusion construct (Homo sapiens, UniProt P63104, F117E); assay: Far-western-blot overlay, 14-3-3 F126E; assay type: binding; details: mutation F126E
# T1 construct: made in house
# T1 sequence (P63104 1-245 F117E): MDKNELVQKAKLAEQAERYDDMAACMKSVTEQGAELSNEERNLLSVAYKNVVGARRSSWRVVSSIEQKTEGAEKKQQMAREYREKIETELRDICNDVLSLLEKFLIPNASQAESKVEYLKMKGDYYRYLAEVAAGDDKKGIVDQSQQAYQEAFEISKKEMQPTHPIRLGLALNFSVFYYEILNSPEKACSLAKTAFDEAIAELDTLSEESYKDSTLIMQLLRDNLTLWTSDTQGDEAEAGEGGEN
# Method: (§1) In order to study the functional relevance of selected amino acids within the above-described binding pocket, residues the following point mutants were analysed in respect FC binding: (a) N49Q, (b) D222E, (c) F126E and (d) I175E in the homologous sequence of human 14-3-3z. The mutant proteins were expressed, purified and FC binding were tested in an in vitro assay in the presence of the 66 C-terminal residues of a PMA-GST fusion construct.
# (§2) For the detection of FC binding a far-western-blot (FIG. 4) was performed. In this in vitro assay, the PMA-GST fusion construct, containing the 66 C-terminal residues of PMA, was immobilised on a nitrocellulose membrane via electroblotting of SDS-PAGE-separated proteins. The interacting protein, a his-tagged 14-3-3 construct was allowed to react with the GST-fusion protein in an overlay-solution. The interaction of these two proteins was mediated by fusicoccin. […] The actual binding of the his-tagged 14-3-3 protein was visualized after washing the membrane by immunodetecton with an anti-His-antibody, which was employed as primary antibody.
# [2] = molecular target: T2, 14-3-3-fusicoccin complex (Nicotiana tabacum, UniProt P93343); assay: Isothermal titration calorimetry, peptide binding to FC/14-3-3c complex; details: for increase of the binding affinity of the peptide by fusicoccin: complete binding cycle, ITC
# T2 construct: Tobacco 14-3-3c (Gene bank AAC49892, amino acids 1-260 with an N-terminal His-tag); His-tag (N); made in house; host or cells: E. coli
# T2 sequence (P93343 1-260): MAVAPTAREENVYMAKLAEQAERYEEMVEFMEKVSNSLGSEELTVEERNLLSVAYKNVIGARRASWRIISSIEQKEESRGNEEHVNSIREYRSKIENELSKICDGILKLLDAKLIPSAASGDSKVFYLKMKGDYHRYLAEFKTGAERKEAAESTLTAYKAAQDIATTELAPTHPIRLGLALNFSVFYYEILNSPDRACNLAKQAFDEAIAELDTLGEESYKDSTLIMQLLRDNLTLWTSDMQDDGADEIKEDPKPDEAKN
# Method: (§3) In order to obtain more quantitative data with respect to the phosphorylated pentapeptide used in the structural analysis, thermodynamic constants were determined by means of isothermal titration calorimetry (ITC, 16).
# (§4) Binding of ligands to 14-3-3c was measured with a MCS isothermal titration calorimeter (MicroCal Inc., Northampton). Ligands (fusicoccin 0.4 mM; phosphopbeptides 0.5 mM) were titrated in 8 to 20 μl steps by injection into solutions containing 14-3-3c (0.05 mM) alone or 14-3-3c saturated with one of the ligands in 25 mM HEPES buffer pH 6.5, 10 mM MgCl2, 5 mM CaCl2, 5 mM DTE at 35° C. Binding isotherms were fitted using a single binding site model and used to calculate the binding enthalpy (ΔH) and association constant (Ka) of the binding reaction. Dissociation constants (KD=1/Ka), Gibbs free energy changes (ΔG=−RTInKa) and entropy changes (TΔS=ΔH−ΔG) were calculated from ΔH and Ka. For the binding of peptide to a FC/14-3-3c complex, we also used non-saturating conditions of FC and observed two binding events which were fitted independently to K1 and K4. All measurements were repeated at least three times.
# [3] = molecular target: T3, 14-3-3c with phosphopeptide after removal of Val (Nicotiana tabacum, UniProt P93343); assay: ITC, FC binding to 14-3-3c with phosphopeptide lacking the C-terminal Val; details: peptide with C-terminal Val deleted, FIG. 3b lower panel
# T3 construct: Tobacco 14-3-3c (Gene bank AAC49892, amino acids 1-260 with an N-terminal His-tag); His-tag (N); made in house; host or cells: E. coli (14-3-3c); the phosphopeptide was synthesized by Biosyntan (Berlin)
# Method: as §4
# (§5) PMA binding to-14-3-3 is unique in that the penultimate C-terminal residue is the phosphorylated threonine (YpTV-COOH). […] Taken together; this explains why there is no effect of FC on any other known 14-3-3-ligand interaction. To date, all plant proteins characterized as interacting directly with 14-3-3 homologs contain the consensus binding motifs with the notable exception of the plasma membrane H^+-ATPase. […]
# [4] = molecular target: T4, 14-3-3z I175E / PMA-GST fusion construct (Homo sapiens, UniProt P63104, I166E); assay: Far-western-blot overlay, 14-3-3 I175E; assay type: binding; details: mutation I175E
# T4 construct: made in house
# T4 sequence (P63104 1-245 I166E): T1 sequence (P63104 1-245 F117E) with E117F, I166E
# Method: as §1, §2
# [5] = Solubility of FC in aqueous solutions; assay type: physicochemical
# [6] = molecular target: T5, 14-3-3z N49Q / PMA-GST fusion construct (Homo sapiens, UniProt P63104, N42Q); assay: Far-western-blot overlay, 14-3-3 N49Q; assay type: binding; details: mutation N49Q
# T5 construct: made in house
# T5 sequence (P63104 1-245 N42Q): T1 sequence (P63104 1-245 F117E) with N42Q, E117F
# Method: as §1, §2
# [7] = molecular target: T6, 14-3-3z D222E / PMA-GST fusion construct (Homo sapiens, UniProt P63104, D213E); assay: Far-western-blot overlay, 14-3-3 D222E; assay type: binding; details: mutation D222E
# T6 construct: made in house
# T6 sequence (P63104 1-245 D213E): T1 sequence (P63104 1-245 F117E) with E117F, D213E
# Method: as §1, §2
# [8] = molecular target: T7, 14-3-3c (Nicotiana tabacum, UniProt P93343); assay: Isothermal titration calorimetry, ligand binding to 14-3-3c alone; details: for binding of the toxin by itself to 14-3-3: unliganded 14-3-3, no peptide
# T7 construct: Tobacco 14-3-3c (Gene bank AAC49892, amino acids 1-260 with an N-terminal His-tag); His-tag (N); made in house; host or cells: E. coli
# T7 sequence (P93343 1-260): T2 sequence (P93343 1-260)
# Method: as §3, §4
# [9] = molecular target: T8, 14-3-3z I175E / GST-PMA2-CT66 (Homo sapiens, UniProt P63104, I166E); assay: GST-pulldown, 14-3-3 I175E; assay type: binding; details: pull-down, mutation I175E
# T8 construct: made in house
# T8 sequence (P63104 1-245 I166E): T1 sequence (P63104 1-245 F117E) with E117F, I166E
# Method: as §1
# (§6) Alternatively, a second in-vitro method was used to screen for fusicoccin binding. In this pull-down assay (FIG. 5), the GST-PMA fusion protein is immobilized on GSH-sepharose-beads and the his-tagged 14-3-3 protein will bind in the presence of fusioccin to the GST-fusion protein and can subsequently be found in the sepharose-fraction after washing and centrifugation of the beads. The detection again takes place via SDS-PAGE and Western-Blotting with subsequent immunodetection.
# [10] = molecular target: T9, 14-3-3z N49Q / GST-PMA2-CT66 (Homo sapiens, UniProt P63104, N42Q); assay: GST-pulldown, 14-3-3 N49Q; assay type: binding; details: pull-down, mutation N49Q
# T9 construct: made in house
# T9 sequence (P63104 1-245 N42Q): T1 sequence (P63104 1-245 F117E) with N42Q, E117F
# Method: as §1, §6
# [11] = molecular target: T10, binary 14-3-3/peptide complex (Nicotiana tabacum, UniProt P93343); assay: Isothermal titration calorimetry, FC titrated to 14-3-3c saturated with peptide; assay type: binding; details: ITC, 35° C., pH 6.5
# T10 construct: Tobacco 14-3-3c (Gene bank AAC49892, amino acids 1-260 with an N-terminal His-tag); His-tag (N); made in house; host or cells: E. coli (14-3-3c); the phosphopeptide was synthesized by Biosyntan (Berlin)
# T10 sequence (P93343 1-260): T2 sequence (P93343 1-260)
# Method: as §3, §4
# [12] = molecular target: T11, wild type 14-3-3 / PMA-GST fusion construct (66 C-terminal residues of PMA) (Homo sapiens, UniProt P63104); assay: Far-western-blot overlay, wild type 14-3-3; assay type: binding; details: 0, 500 nM and 1000 nM fusicoccin
# T11 construct: made in house
# T11 sequence (P63104 1-245): T1 sequence (P63104 1-245 F117E) with E117F
# Method: as §1, §2
# [13] = molecular target: T12, 14-3-3z D222E / GST-PMA2-CT66 (Homo sapiens, UniProt P63104, D213E); assay: GST-pulldown, 14-3-3 D222E; assay type: binding; details: pull-down, mutation D222E
# T12 construct: made in house
# T12 sequence (P63104 1-245 D213E): T1 sequence (P63104 1-245 F117E) with E117F, D213E
# Method: as §1, §6
# [14] = molecular target: T13, 14-3-3z F126E / GST-PMA2-CT66 (Homo sapiens, UniProt P63104, F117E); assay: GST-pulldown, 14-3-3 F126E; assay type: binding; details: pull-down, mutation F126E
# T13 construct: made in house
# T13 sequence (P63104 1-245 F117E): T1 sequence (P63104 1-245 F117E)
# Method: as §1, §6
# [15] = molecular target: T14, 14-3-3c preloaded with Gln-Ser-Tyr-pThr-Val-Pro (Nicotiana tabacum, UniProt P93343); assay: ITC, FC binding to 14-3-3c preloaded with C-terminally extended phosphopeptide; details: peptide with added C-terminal Pro, FIG. 3b upper panel
# T14 construct: Tobacco 14-3-3c (Gene bank AAC49892, amino acids 1-260 with an N-terminal His-tag); His-tag (N); made in house; host or cells: E. coli (14-3-3c); the phosphopeptide was synthesized by Biosyntan (Berlin)
# T14 sequence (P93343 1-260): T2 sequence (P93343 1-260)
# Method: as §4, §5
# [16] = molecular target: T15, 14-3-3 (Nicotiana tabacum, UniProt P93343); assay: Binding of non-phosphorylated peptide to 14-3-3 (not shown, method not stated)
# T15 sequence (P93343 1-260): T2 sequence (P93343 1-260)
# Source text: The phosphopeptide occupies the central binding groove of 14-3-3c in an extended conformation. The phosphate moiety of the phosphothreonine forms electrostatic interactions with a positively charged patch formed by residues Lys56, Arg63, and Arg136 and a H-bond to Tyr137 (FIG. 1b). […] Additionally, there are a number of H-bonds (cut-off limit 3.4 Å) between the peptide, mostly from the main-chain, and conserved protein side-chains. The peptide's C-terminal barboxylate is mostly contacted by basic residues and the side chains of the Val and Tyr residue flanking the phosphothreonine form van der Waals contacts to the protein (FIG. 1b). The structure confirms the notion that the C-terminal YTV-motif is highly conserved in plant P-type H^+-ATPases.
molecule,measurement,setting,value
C=CC(C)(C)OC[C@H]1O[C@H](O[C@@H]2C3=C([C@H](C)COC(C)=O)C[C@H](O)[C@]3(C)/C=C3/[C@@H](COC)CC[C@H]3[C@@H](C)[C@H]2O)[C@H](O)[C@@H](OC(C)=O)[C@@H]1O [Fusicoccin],fusicoccin mediated PMA binding,[1],complete inhibition of binding
same,increase of the binding affinity of the peptide by fusicoccin,[2],93 fold
same,increase of the binding affinity of the peptide by fusicoccin,[2]; listed as toxin,more than 90 fold
same,FC binding,[3],drastically weakens the binding
same,FC binding,[3]; listed as FC,significant lower binding affinity
same,fusicoccin mediated PMA binding,[4],complete inhibition of binding
same,solubility in aqueous solutions,[5],insolubility
same,fusicoccin mediated PMA binding,[6],strong reduction
same,fusicoccin mediated PMA binding,[7],strong reduction
same,Kd,"[8]; calculated from K4 and K1×K2=K3×K4, read-out: affinity of FC to 14-3-3, more reliable value",66 µM
same,Kd,"[8]; direct ITC determination, somewhat unreliable, read-out: affinity of FC to 14-3-3",~50 µM
same,binding of the toxin by itself to 14-3-3,[8]; listed as FC,weak binding
same,binding of the toxin by itself to 14-3-3,[8]; listed as toxin,binds only weakly
same,fusicoccin mediated PMA binding,[9],complete inhibition of binding
same,fusicoccin mediated PMA binding,[10],strong reduction
same,Kd,[11],0.7 µM
same,fusicoccin mediated interaction of 14-3-3 with PMA-GST,[12],interaction was only observed in the presence of fusicoccin
same,fusicoccin mediated PMA binding,[13],strong reduction
same,fusicoccin mediated PMA binding,[14],complete inhibition of binding
same,FC binding,[15],drastically weakens the binding
same,FC binding,[15]; listed as FC,severely impaired
Gln-Ser-Tyr-Thr-Val (QSYTV; printed: Gln-Ser-Tyr-Thr-Val) [non-phosphorylated version of the PMA2 C-terminal pentapeptide],binding to 14-3-3,[16],binding could not be detected
"CC(C)[C@H](NC(=O)[C@@H](NC(=O)[C@H](Cc1ccc(O)cc1)NC(=O)[C@H](CO)NC(=O)[C@@H](N)CCC(N)=O)[C@@H](C)OP(=O)(O)O)C(=O)O [peptide, Gln-Ser-Tyr-pThr-Val] (H-QSY[pT]V-OH; N-terminus assumed)",enthalpy (ΔH) of peptide binding,[2]; 14-3-3-FC complex,-49.4 kJ/mol
same,−TAS of peptide binding,[2]; 14-3-3-FC complex,1.7 kJ/mol
same,binding between 14-3-3 and the peptide,"[2]; after saturation of the binding site with FC, FIG. 3A",much tighter
same,Kd,[8],2.5 µM
same,enthalpy (ΔH) of peptide binding,[8]; unliganded 14-3-3,-41.8 kJ/mol
same,−TAS of peptide binding,[8]; unliganded 14-3-3,7.11 kJ/mol
